Results from patent US4302465A, “Therapeutically active, substituted piperidines and pyrrolidines therapeutic compositions thereof and methods of use thereof” (priority 1979, dated 1981).
Several values for one entry are separate records, joined by “and”; a condition that tells them apart may be missing. Identical values can stand only once.

Experiments:
[1] = in vivo; conditions: rat, iv
[2] = system: guinea pigs; assay: Local anaesthetic effect in guinea pigs after intracutaneous infiltration; format: in vivo; conditions: for Duration of Anaesthesia: 1.0% + adrenaline 5 μg/ml, 12 animals
[3] = system: arrhythmic heart-beats induced by ouabain; assay: Effect against arrhythmic heart-beats induced by ouabain in anaesthetized dogs; format: in vivo; conditions: for Duration of regularization / Number of regularized arrhythmias (percent) / Number of regularized arrhythmias: ouabain; for Number of regularized arrhythmias: count
[4] = in vivo; conditions: mouse
[5] = system: sciatic nerve; assay: Local anaesthetic effect in rats after perineuronal injection close to the sciatic nerve; format: in vivo; conditions: for Duration of anaesthesia, Motoric Blockage / Duration of anaesthesia, Sensory Blockage: 1.0% + adr. 5 μg/ml, 10 animals, perineuronal, sciatic nerve
[6] = system: rabbits; conditions: rabbit, in vivo

Structure (SMILES) | TD50 [1] [mg/kg] | local anaesthetic effect, in words [2] | Duration of Anaesthesia [2] [min] | effect against arrhythmic heart-beats induced by ouabain, in words [3] | Duration of regularization ([3]; dose 1.0 mg/kg) [min] | Number of regularized arrhythmias (percent) ([3]; dose 1.0 mg/kg) [%] | Number of regularized arrhythmias ([3]; dose 1.0 mg/kg) | Duration of regularization ([3]; dose 2.0 mg/kg) [min] | Number of regularized arrhythmias (percent) ([3]; dose 2.0 mg/kg) | Number of regularized arrhythmias ([3]; dose 2.0 mg/kg) | LD50 ([4]; iv) [mg/kg] | LD50 [4] [mg/kg] | Duration of anaesthesia, Motoric Blockage [5] [min] | Duration of anaesthesia, Sensory Blockage [5] [min] | tissue irritation, in words [6] | local anaesthetic effect, in words ([5]; perineuronal injection close to the sciatic nerve)
Cc1cccc(C)c1NC(=O)[C@@H]1CCCN1CCO [Substance S-1258, L-N-(2-hydroxyethyl)prolyl-2,6-dimethylanilide] | 130 ± 10 | better local anaesthetic effect than lidocaine | 111 ± 8 | effective against arrhythmic heartbeats induced by ouabain | 95 ± 20 | 83 | 5 | 195 ± 40 | 67% | 4 | 110 |  |  |  |  | 
Cc1cccc(C)c1NC(=O)C1CCCCN1C (centres unmarked) [Mepivacaine, mepivacaine, reference compound] | 38 ± 3 |  | 152 ± 16 |  | 110 ± 20 | 50 | 5 | 185 ± 50 | 50% and 60% | 6 | 31 | 31 | 89 ± 4 | 87 ± 4 |  | 
CCN(CC)CC(=O)Nc1c(C)cccc1C [Lidocaine, lidocaine, reference compound] |  |  | 132 ± 7 |  |  | 60 | 12 | 220 ± 30 | 79% | 19 |  |  | 79 ± 5 | 77 ± 5 |  | 
Cc1cccc(C)c1NC(=O)C1CCCC[N+]1(C)CCO (centres unmarked) [N-methyl-S-1249, N(quaternary-2-hydroxyethyl-N-methyl)pipecolinyl-2,6-dimethylanilide] | 125 | local anaesthetic effect | 128 ± 12 | rhythm-regularizing effects | 180 ± 30 | 100 | 4 | 310 ± 50 | 100% | 4 | 84 |  |  |  |  | 
Cc1cccc(C)c1NC(=O)C1CCCCN1CCO (racemic) [Substance S-1249, DL-N-(2-hydroxyethyl)pipecolinyl-2,6-dimethylanilide] | 103 ± 8 | local anaesthetic effect of the same order of magnitude as lidocaine and mepivacaine | 140 ± 8 | effects equivalent to lidocaine and better than mepivacaine | 130 ± 40 | 65 | 13 | 280 ± 70 | 70% | 17 |  | 57 | 83 ± 6 | 82 ± 6 | considerably less tissue irritation | equivalent local anaesthetic effect to lidocaine and mepivacaine
Cc1cccc(C)c1NC(=O)C1CCCCN1CCCO (centres unmarked) [Substance S-1265, N-(3-Hydroxypropyl)pipecolinyl-2,6-dimethylanilide] | 80 ± 4 | better local anaesthetic effect than lidocaine | 151 ± 6 | effects equivalent to lidocaine and mepivacaine | 120 ± 30 | 67 | 4 | 200 ± 40 | 83% | 5 | 40 |  |  |  |  | 
